Test results taken from patent publication US7579373B2, “Targeted bisplatinum polyamines as pro-drugs: selective release of platinum” (Virginia Commonwealth University, priority 2002, dated 2009).

Experiments:
L1210/DDP [1] = assay: Growth inhibition in L1210/DDP cells; assay type: cell-based, murine
CH1 = assay: SRB growth inhibition assay, CH1; assay type: cell-based, human; details: 96 h exposure
Protocol: (§1) Cell culture. A2780, A2780/CDDP, CH1, CH1/CDDP, 41M and 41M/CDDP cell lines were used in this study and maintained according to published procedures. (8,9).
(§2) Growth inhibition assay. The Sulforhodamine B (SRB) assay was used to determine growth inhibition potency of platinum drugs (10). The cells were seeded in 96-well microtitre plates at 3-8×10^3 cells/well in 160 μL growth medium and allowed to attach overnight. Platinum agents were then added after serial dilution in quadruplicate wells and exposed to cells for 2 or 96 hours. After the 2 hours drug incubations were complete, plates were washed free of drug with phosphate-buffered saline (PBS) and then refed with normal growth medium for a further 94 hours. Quantitation of cell growth in treated and control wells was then assessed using 0.4% SRB dissolved in 1% acetic acid. IC50 values were determined graphically.
(§3) Of special interest is the remarkably low value for 4 (Fmoc) in A2780 cells.

L1210/0 [2] = assay: Cellular accumulation in L1210/0 cells; assay type: cell-based, murine; details: 2 hours of exposure; (±SE), 3 experiments of 2 determinations
Protocol: (§4) Cellular accumulation. The cellular accumulation assays followed published procedures (7). Briefly, cells were resuspended at 10^7/mL in media supplemented with […]. Platinum complexes were added, and samples were incubated at 37° C. in 5% CO2. At 0 and 2 hours aliquots were removed for determination of cell concentrations and for measurement of platinum content. For the latter, aliquots were washed three times in cold phosphate buffered saline, resuspended in 1% Triton-X in water, and sonicated. Platinum content was measured by flameless atomic absorption spectroscopy.
(§5) The cellular accumulation of the blocked Pt compound 2 was also investigated. […] Based solely on charge considerations the BOC-spermidine with a charge of 2+ should have cellular uptake similar to 1,1/t,t (n=6). The enhanced uptake could be explained by some hydrolysis in media or plasma producing small amounts of the protonated 1,1/t,t-spermidine. Considering the potency of polynuclear-polyamine compounds, a small percentage of hydrolysis could have a significant impact on in vivo activity.

A2780/CDDP = assay: SRB growth inhibition assay, A2780/CDDP; assay type: cell-based, human; details: 96 h exposure
Protocol: as §1
as §2, with “graphically. […]” for “graphically.”

41M = assay: SRB growth inhibition assay, 41M; assay type: cell-based, human; details: 96 h exposure
Protocol: as §1, §2, §3

L1210/0 [3] = assay: Growth inhibition in L1210/0 cells; assay type: cell-based, murine; details: 2 hours of exposure; mean (±SE), 3 experiments of 2 determinations
Excerpt: To examine the pro-drug potential in a biological setting, a comparison of the pharmacological properties of the blocked polyamine compounds in L1210 murine leukemia cells was undertaken.

A2780 = assay: SRB growth inhibition assay, A2780; assay type: cell-based, human; details: 96 h exposure
Protocol: as §1, §2, §3

CH1/CDDP = assay: SRB growth inhibition assay, CH1/CDDP; assay type: cell-based, human
Protocol: as §1
as §2, with “graphically. […]” for “graphically.”

[4] = pKa of the N4 site by pH titration monitored by 1H NMR; assay type: physicochemical
Protocol: pH measurements were taken on a Corning 340 pH meter with combined glass electrode. pD values in deuterated solutions were obtained by addition of 0.4 units to the meter reading. Extinction coefficients were determined with a Jasco V-550 UV/VIS spectrophotometer using 1 cm cuvettes.
In order to find the optimal conditions for the synthetic procedure, the pKa of the N4 site of the unprotected Pt spermidine complex 1 was determined prior to the protection reactions (6). A pH titration was carried out and monitored by ^1H NMR spectroscopy (11 and 12). […] The increased acidity is most likely a consequence of the electron withdrawing effect of the coordinated platinum centers.

L1210/DDP [5] = assay: Cellular accumulation in L1210/DDP cells; assay type: cell-based, murine; details: 2 hours of exposure; (±SE), 3 experiments of 2 determinations
Protocol: as §4, §5

Structure (SMILES): N.N.N.N.NCCCC[NH2+]CCCN.[Cl-].[Cl-].[Cl-].[Cl][Pt+].[Cl][Pt+] [Compound 1, [{trans-Pt(NH3)2Cl}2-μ-spermidine-N^1,N^8]Cl3]
- IC50 (L1210/DDP [1]; 2 hours of exposure, mean (±SE), 3 experiments of 2 determinations): 260 nM
- RF, resistance factor (L1210/DDP [1]; IC50 L1210/DDP / IC50 L1210/0, 2 hours of exposure): 0.35
- IC50 (CH1): 430 nM
- Accumulation L1210/0 (L1210/0 [2]): 17 (3.4) attamol Pt complex/cell
- IC50 (A2780/CDDP): < 250 nM
- IC50 (41M): < 250 nM
- IC50 (L1210/0 [3]): 750 nM
- IC50 (A2780): < 250 nM
- IC50 (CH1/CDDP; 96 h exposure): 350 nM
- RF CH1/CDDP (CH1/CDDP; IC50 resistant/IC50 parent line, 96 h): 0.8
- pKa of the N4 site [4]: 9.24±0.05
- Accumulation L1210/DDP (L1210/DDP [5]): 20 (2.1) attamol Pt complex/cell
